# Columns and labels:
# [1] = target: Dual specificity tyrosine-phosphorylation-regulated kinase 1A (Homo sapiens) (UniProt Q13627); assay: Inhibition of recombinant full length human GST-fused DYRK1A expressed in Escherichia coli at 10 uM using RS peptide as substrate after 30 mins in presence of ATP by scintillation counting method relative to control
# [2] = test system: ZR-75-1; assay: Cytotoxicity against human ZR-75-1 cells by MTT assay; type: functional, cell-based
# [3] = test system: BT-20; assay: Cytotoxicity against human BT20 cells by MTT assay; type: functional, cell-based
# [4] = test system: ZR-75-1; assay: Growth inhibition of human ZR-75-1 cells at 100 uM by MTT assay relative to control; type: functional; details: read-out: GI
# [5] = Inhibition of M-phase starfish oocytes CDK1/cyclin B using histone H1 as substrate after 30 mins in presence of ATP by scintillation counting method; parameters: species or system Asteroidea
# [6] = test system: MIA PaCa-2; assay: Growth inhibition of human MIAPaCa2 cells at 100 uM by MTT assay relative to control; type: functional; details: read-out: GI
# [7] = test system: HCT-15; assay: Cytotoxicity against human HCT15 cells by MTT assay; type: functional, cell-based
# [8] = test system: A549; assay: Growth inhibition of human A549 cells at 100 uM by MTT assay relative to control; type: functional; details: read-out: GI
# [9] = test system: MDA-MB-468; assay: Growth inhibition of human MDA-MB-468 cells at 100 uM by MTT assay relative to control; type: functional; details: read-out: GI
# [10] = target: CDK2/Cyclin A2 (Homo sapiens) (UniProt P24941+P20248); assay: Inhibition of recombinant human CDK2/cyclin A at 10 uM using histone H1 as substrate after 30 mins in presence of ATP by scintillation counting method relative to control; type: protein-complex assay
# [11] = test system: MDA-MB-468; assay: Cytotoxicity against human MDA-MB-468 cells by MTT assay; type: functional, cell-based
# [12] = target: CDK9/cyclin T1 (Homo sapiens) (UniProt O60563+P50750); assay: Inhibition of recombinant human CDK9/cyclin T expressed in insect cells at 10 uM using YSPTSPSYSPTSPSYSPTSPSKKKK as substrate after 30 mins in presence of ATP by scintillation counting method relative to control
# [13] = test system: MDA-MB-231; assay: Cytotoxicity against human MDA-MB-231 cells by MTT assay; type: functional, cell-based
# [14] = test system: MCF7; assay: Growth inhibition of human MCF7 cells at 100 uM by MTT assay relative to control; type: functional; details: read-out: GI
# [15] = test system: ZR-75-30; assay: Cytotoxicity against human ZR-7530 cells by MTT assay; type: functional, cell-based
# [16] = Inhibition of porcine brain CK1-delta/epsilon using CSK peptide as substrate after 30 mins in presence of ATP by scintillation counting method; parameters: species or system Sus scrofa
# [17] = test system: ZR-75-30; assay: Growth inhibition of human ZR-7530 cells at 100 uM by MTT assay relative to control; type: functional; details: read-out: GI
# [18] = test system: DU-145; assay: Growth inhibition of human DU145 cells at 100 uM by MTT assay relative to control; type: functional; details: read-out: GI
# [19] = target: Dual specificity protein kinase CLK1 (Mus musculus) (UniProt P22518); assay: Inhibition of recombinant mouse GST-fused CLK1 expressed in Escherichia coli at 10 uM using RS peptide as substrate after 30 mins in presence of ATP by scintillation counting method relative to control
# [20] = test system: PANC-1; assay: Growth inhibition of human PANC1 cells at 100 uM by MTT assay relative to control; type: functional; details: read-out: GI
# [21] = target: Glycogen synthase kinase-3 (Sus scrofa, UniProt B2LUN4+I6LNT8); assay: Inhibition of porcine brain GSK-3 alpha/beta using YRRAAVPPSPSLSRHSSPHQpSEDEEE as substrate after 30 mins in presence of ATP by scintillation counting method
# [22] = target: Dual specificity protein kinase CLK1 (Mus musculus, UniProt P22518); assay: Inhibition of recombinant mouse GST-fused CLK1 expressed in Escherichia coli using RS peptide as substrate after 30 mins in presence of ATP by scintillation counting method
# [23] = target: CDK2/Cyclin A2 (Homo sapiens, UniProt P24941); assay: Inhibition of recombinant human CDK2/cyclin A using histone H1 as substrate after 30 mins in presence of ATP by scintillation counting method; type: protein-complex assay
# [24] = target: Glycogen synthase kinase-3 (Sus scrofa) (UniProt B2LUN4+I6LNT8); assay: Inhibition of porcine brain GSK-3 alpha/beta at 10 uM using YRRAAVPPSPSLSRHSSPHQpSEDEEE as substrate after 30 mins in presence of ATP by scintillation counting method relative to control
# [25] = test system: HCT-15; assay: Growth inhibition of human HCT15 cells at 100 uM by MTT assay relative to control; type: functional; details: read-out: GI
# [26] = test system: MIA PaCa-2; assay: Cytotoxicity against human MIAPaCa2 cells by MTT assay; type: functional, cell-based
# [27] = target: Cyclin-dependent kinase 5/CDK5 activator 1 (Homo sapiens) (UniProt Q00535+Q15078); assay: Inhibition of recombinant human CDK5/p25 expressed in Escherichia coli at 10 uM using histone H1 as substrate after 30 mins in presence of ATP by scintillation counting method relative to control
# [28] = test system: PANC-1; assay: Cytotoxicity against human PANC1 cells by MTT assay; type: functional, cell-based
# [29] = test system: A549; assay: Cytotoxicity against human A549 cells by MTT assay; type: functional, cell-based
# [30] = test system: HEK293; assay: Cytotoxicity against HEK293 cells by MTT assay; type: cell-based; details: Homo sapiens
# [31] = test system: BT-20; assay: Growth inhibition of human BT20 cells at 100 uM by MTT assay relative to control; type: functional; details: read-out: GI
# [32] = test system: MCF7; assay: Cytotoxicity against human MCF7 cells by MTT assay; type: functional, cell-based
# [33] = Growth inhibition of HEK293 cells at 100 uM by MTT assay relative to control; type: cell-based; details: human, read-out: GI
# [34] = species on record: Sus scrofa; assay: Inhibition of porcine brain CK1-delta/epsilon at 10 uM using CSK peptide as substrate after 30 mins in presence of ATP by scintillation counting method relative to control
# [35] = test system: Asteroidea; assay: Inhibition of M-phase starfish oocytes CDK1/cyclin B at 10 uM using histone H1 as substrate after 30 mins in presence of ATP by scintillation counting method relative to control
# [36] = test system: MDA-MB-231; assay: Growth inhibition of human MDA-MB-231 cells at 100 uM by MTT assay relative to control; type: functional; details: read-out: GI
# Chain of Cyclin-dependent kinase 5/CDK5 activator 1 (Homo sapiens) (Q00535 whole entry): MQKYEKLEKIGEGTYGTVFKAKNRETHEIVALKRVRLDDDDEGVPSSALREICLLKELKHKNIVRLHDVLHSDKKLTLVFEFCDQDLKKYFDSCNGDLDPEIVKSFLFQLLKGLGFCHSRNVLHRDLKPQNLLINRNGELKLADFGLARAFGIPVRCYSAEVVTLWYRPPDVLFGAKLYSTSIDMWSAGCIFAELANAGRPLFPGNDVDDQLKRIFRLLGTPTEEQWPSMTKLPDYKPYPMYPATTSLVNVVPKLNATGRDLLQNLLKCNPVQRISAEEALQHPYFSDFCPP
# Chain of Cyclin-dependent kinase 5/CDK5 activator 1 (Homo sapiens) (Q15078 99-307 partner limits assumed): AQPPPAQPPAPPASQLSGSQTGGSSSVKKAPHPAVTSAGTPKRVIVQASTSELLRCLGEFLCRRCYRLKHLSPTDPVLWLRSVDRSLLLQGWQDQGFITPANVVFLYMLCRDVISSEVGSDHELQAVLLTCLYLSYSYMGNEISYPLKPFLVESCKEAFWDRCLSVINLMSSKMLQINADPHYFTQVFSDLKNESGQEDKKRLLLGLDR
# Chain of Dual specificity protein kinase CLK1 (P22518 whole entry, the tested form may be a part): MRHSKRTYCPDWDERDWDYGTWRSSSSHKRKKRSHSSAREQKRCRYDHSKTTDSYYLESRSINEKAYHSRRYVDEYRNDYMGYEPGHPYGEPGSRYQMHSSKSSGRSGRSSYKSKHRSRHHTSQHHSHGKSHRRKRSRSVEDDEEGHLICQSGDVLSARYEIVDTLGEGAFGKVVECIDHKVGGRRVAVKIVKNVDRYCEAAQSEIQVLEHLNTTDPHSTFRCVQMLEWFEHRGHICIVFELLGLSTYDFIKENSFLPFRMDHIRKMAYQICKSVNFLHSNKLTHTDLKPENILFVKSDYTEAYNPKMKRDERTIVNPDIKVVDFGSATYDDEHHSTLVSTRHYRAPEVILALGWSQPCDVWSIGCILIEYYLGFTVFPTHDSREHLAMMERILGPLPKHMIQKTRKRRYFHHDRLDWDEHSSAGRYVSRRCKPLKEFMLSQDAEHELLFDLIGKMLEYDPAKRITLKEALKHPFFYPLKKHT
# Chain of Dual specificity protein kinase CLK1 (Mus musculus) (P22518 whole entry, looked up, the tested form may be a part): as the sequence (P22518 whole entry, the tested form may be a part) above
SMILES,inhibition [1],IC50 [2],IC50 [3],inhibition of growth at 100 µM [4],IC50 [5],inhibition of growth at 100 µM [6],IC50 [7],inhibition of growth at 100 µM [8],inhibition of growth at 100 µM [9],inhibition [10],IC50 [11],inhibition [12],IC50 [13],inhibition of growth at 100 µM [14],IC50 [15],IC50 [16],inhibition of growth at 100 µM [17],inhibition of growth at 100 µM [18],inhibition [19],inhibition of growth at 100 µM [20],other results
COc1cc2ncnc(Nc3n[nH]cc3C#N)c2cc1OC,> 50%,> 100 µM,> 100 µM,> 50%,> 10 µM,> 50%,> 100 µM,> 50%,> 50%,> 50%,> 100 µM,> 50%,> 100 µM,> 50%,> 100 µM,< 10 µM,> 50%,> 50%,> 50%,> 50%,IC50 [21]: > 10 µM; IC50 [22]: > 10 µM; IC50 [23]: > 10 µM; inhibition [24]: > 50%; inhibition of growth at 100 µM [25]: > 50%; IC50 [26]: > 100 µM; inhibition [27]: > 50%; IC50 [28]: > 100 µM; IC50 [29]: > 100 µM; IC50 [30]: > 100 µM; inhibition of growth at 100 µM [31]: > 50%; IC50 [32]: > 100 µM; inhibition at 100 µM [33]: > 50%; inhibition [34]: > 50%; inhibition [35]: > 50%; inhibition of growth at 100 µM [36]: > 50%
COc1cc2ncnc(Nc3cc(O)[nH]n3)c2cc1OC,> 50%,> 100 µM,> 100 µM,> 50%,> 10 µM,> 50%,> 100 µM,> 50%,> 50%,> 50%,86.7 µM,> 50%,> 100 µM,> 50%,> 100 µM,< 10 µM,> 50%,> 50%,> 50%,> 50%,IC50 [21]: > 10 µM; IC50 [22]: > 10 µM; IC50 [23]: > 10 µM; inhibition [24]: > 50%; inhibition of growth at 100 µM [25]: > 50%; IC50 [26]: > 100 µM; inhibition [27]: > 50%; IC50 [28]: > 100 µM; IC50 [29]: 74.9 µM; IC50 [30]: 69.5 µM; inhibition of growth at 100 µM [31]: > 50%; IC50 [32]: > 100 µM; inhibition at 100 µM [33]: > 50%; inhibition [34]: > 50%; inhibition [35]: > 50%; inhibition of growth at 100 µM [36]: > 50%
COc1ccc(-c2cc(Nc3ncnc4cc(OC)c(OC)cc34)n[nH]2)cc1,> 50%,> 100 µM,> 100 µM,> 50%,> 10 µM,> 50%,< 100 µM,> 50%,> 50%,> 50%,45.3 µM,> 50%,< 100 µM,> 50%,< 100 µM,< 10 µM,> 50%,> 50%,> 50%,> 50%,IC50 [21]: > 10 µM; IC50 [22]: > 10 µM; IC50 [23]: > 10 µM; inhibition [24]: > 50%; inhibition of growth at 100 µM [25]: > 50%; IC50 [26]: < 100 µM; inhibition [27]: > 50%; IC50 [28]: > 100 µM; IC50 [29]: > 100 µM; IC50 [30]: > 100 µM; inhibition of growth at 100 µM [31]: > 50%; IC50 [32]: > 100 µM; inhibition at 100 µM [33]: > 50%; inhibition [34]: > 50%; inhibition [35]: > 50%; inhibition of growth at 100 µM [36]: > 50%

# From ChEMBL document CHEMBL4020763, “N-(1H-Pyrazol-3-yl)quinazolin-4-amines as a novel class of casein kinase 1δ/ε inhibitors: Synthesis, biological evaluation and molecular modeling studies” (Bioorg Med Chem Lett, 2017)
